The values that follow come from US20080269161A1, “Compositions and Methods Relating to Mitochondrial Hyperpolarization in Neurological Disease” (priority 2005, published 2008).

Entries after “also recorded” stand apart in the source; their conditions may differ.

The test has as its system CA1 pyramidal neurons in hippocampal slices. Details: species or system rodent. Here is the method:
CA1 pyramidal neurons were exposed to 1 μM cPAF or vehicle for 30-60min and simultaneously imaged and recorded by whole-cell patch clamp before and after delivery of a high-frequency stimulus (HFS: three 1s, 100 Hz trains, every 20 s) applied to Schaffer collateral axons via a bipolar stimulating electrode planted in the stratum radiatum. (A) Dendrite beading in a cPAF-exposed cell 45min after HFS, with no disruption of dendrite or spine morphology in control cells. […] (C) Excitatory synaptic transmission between Shaffer collateral axons and CA1 pyramidal neurons is strongly potentiated following HFS in control slices. […] (EPSP traces at baseline and 40 min from representative control cell and cPAF-treated beaded cell are at right.) […]
Explant hippocampal slices are exposed to HIV-1 neurotoxins±agents that reverse mitochondrial hyperpolarization. Beading and LTP are then be measured:
Hippocampal slice preparation: Brains from anesthetized P14-28 rodents are rapidly removed and cooled in sucrose based artificial cerebrospinal fluid (ACSF) containing in mM: 110 sucrose, 60 NaCl, 3 KCl, 1.25 NaH2PO4, 28 NaHCO3, 10 D-glucose, 0.5 CaCl2, 7 MgSO4, 0.6 ascorbate. The brains are blocked and fixed to a specimen stage with cyanoacrylate. Coronal slices (250-400 μm in thickness) are cut with a vibroslicer (World Precision Instruments, Fla., USA) equipped with a Peltier cooling system. The middle four to six slices of each hippocampus (with the entorhinal cortex removed) are placed into a holding chamber prior to use.
Measuring dendritic beading and postsynaptic potentials in single CA1 cells in hippocampal slices: Dendritic arbors of individual CA1 pyramidal cells are imaged while simultaneously recording excitatory postsynaptic potentials in the same cell by patch clamp recordings in whole-cell configuration. Recording pipettes ([…] resistance) are pulled from 1.5 mm borosilicate glass using a horizontal Flaming/Brown micropipette puller (Sutter Instrument Co, Calif.), fire-polished, and filled with intracellular recording solution (in mM: KCl 20, potassium gluconate 130, EGTA 0.5, HEPES 10, MgSO4 2, ATP 2.5, GTP 0.5, pH 7.3). In order to visualize dendrites of the recorded cell, Alexa 568 hydrazide (30 μM) is included in the recording pipette and is injected by small negative current pulses for 15-20 min prior to recording in order to fill the dendritic arbor. Hippocampal slices are bathed in artificial CSF (containing, in mM: NaCl 125, KCl 2.5, NaH2PO4 1.25, NaHCO3 25, CaCl2 2, MgCl2 1, D-glucose 25, oxygenated and buffered with 5% CO2). Membrane potentials of CA1 pyramidal cells are recorded in current clamp mode, and postsynaptic potentials are evoked by test pulses of constant-current stimulation applied via a bipolar stimulating electrode placed 50-200 μm away in the stratum radiatum. Bicuculline (10 μM) is included in the bath to isolate excitatory postsynaptic potentials. After at least 10 min of consistent baseline recording, a high-frequency LTP induction stimulus (HFS, consisting of four 1 s, 100 Hz trains delivered every 15 s) is applied. EPSPs are recorded for 60 min following HFS. At the same time, dendrites are imaged at 40× magnification by fluorescence microscopy, using a shutter to limit fluorescent light exposure and prevent phototoxic injury to the slice. Serial images of dendrites are compared to detect development of focal swellings along dendritic shafts following HFS. Cells are scored as beaded if swellings develop along any of their dendrites.
Field potential recording and induction of LTP in hippocampal slices: Single-cell recordings are complemented by extracellular field potential recordings: while single cell recordings allow correlation of electrophysiologic data with dendritic beading in the same cell, extracellular recordings sample responses from populations of dendrites and are less invasive. […]

The mark [1] stands for this setting: HIV-1 neurotoxin with vehicle treatment.

Regarding `CCCCCCCCCCCCCCCCOC[C@H](COP(=O)([O-])OCC[N+](C)(C)C)OC(=O)NC` [PAF, carbamyl-platelet-activating factor], under “1 μM cPAF, 30-60 min”, the “cells with beading elicited by HFS” value is recorded as “half of the cells”; the “potentiation of EPSPs after HFS, cells that did not develop dendrite beading” value is listed as “smaller potentiation”; the “potentiation of EPSPs after HFS, cells whose dendrites did bead” value was “failure of long-term potentiation; also recorded: not potentiated at all”. Besides, under setting [1], the “Beading Prediction” value was “Occurs”, the “LTP Prediction” value is listed as “Failure” and the Δψm result is “Hyperpolarized”.
